Source: patent US8192962B2, “Processes for detecting toxic substances” (Daikin Industries, Ltd., priority 2001, dated 2012)

System: Genes belonging to other category
Assay: DNA chip mRNA expression in yeast, genes belonging to other category (Table 9)
Assay type: cell-based, Saccharomyces cerevisiae S288C
Outline: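 Chemical exposure: 2 h, log-phase S. cerevisiae S288C, YPD, 25° C., dose set to inhibit growth without death. Profiling: mRNA labeled by reverse transcription with Cy3- or Cy5-dUTP, hybridized to whole-genome array. Output: fluorescence ratio against untreated culture.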

## O=[N+]([O-])c1cc[n+]([O-])c2ccccc12 [(5), 4-nitroquinolin-N-oxide]
Yeast gene YAL055W
  The level of expressed mRNA in the presence of chemical substance/The level of expressed mRNA in the absence of chemical substance: 1.4
Yeast gene YAR009C
  The level of expressed mRNA in the presence of chemical substance/The level of expressed mRNA in the absence of chemical substance: 1.4
Yeast gene YAR010C
  The level of expressed mRNA in the presence of chemical substance/The level of expressed mRNA in the absence of chemical substance: 1.0
Yeast gene YAR062W
  The level of expressed mRNA in the presence of chemical substance/The level of expressed mRNA in the absence of chemical substance: 1.0
Yeast gene YBL005W-A
  The level of expressed mRNA in the presence of chemical substance/The level of expressed mRNA in the absence of chemical substance: 1.3
Yeast gene YBL041W
  The level of expressed mRNA in the presence of chemical substance/The level of expressed mRNA in the absence of chemical substance: 1.6
Yeast gene YBL043W
  The level of expressed mRNA in the presence of chemical substance/The level of expressed mRNA in the absence of chemical substance: 1.1
Yeast gene YBL078C
  The level of expressed mRNA in the presence of chemical substance/The level of expressed mRNA in the absence of chemical substance: 0.7
Yeast gene YBL101C
  The level of expressed mRNA in the presence of chemical substance/The level of expressed mRNA in the absence of chemical substance: 1.0
Yeast gene YBR009C
  The level of expressed mRNA in the presence of chemical substance/The level of expressed mRNA in the absence of chemical substance: 1.4
Yeast gene YBR212W
  The level of expressed mRNA in the presence of chemical substance/The level of expressed mRNA in the absence of chemical substance: 1.0
Yeast gene YBR214W
  The level of expressed mRNA in the presence of chemical substance/The level of expressed mRNA in the absence of chemical substance: 1.1
Yeast gene YBR283C
  The level of expressed mRNA in the presence of chemical substance/The level of expressed mRNA in the absence of chemical substance: 1.4
Yeast gene YBR290W
  The level of expressed mRNA in the presence of chemical substance/The level of expressed mRNA in the absence of chemical substance: 1.0
Yeast gene YCL020W
  The level of expressed mRNA in the presence of chemical substance/The level of expressed mRNA in the absence of chemical substance: 0.5
Yeast gene YCL027W
  The level of expressed mRNA in the presence of chemical substance/The level of expressed mRNA in the absence of chemical substance: 1.2
Yeast gene YCR004C
  The level of expressed mRNA in the presence of chemical substance/The level of expressed mRNA in the absence of chemical substance: 1.2
Yeast gene YCR039C
  The level of expressed mRNA in the presence of chemical substance/The level of expressed mRNA in the absence of chemical substance: 1.9
Yeast gene YCR062W
  The level of expressed mRNA in the presence of chemical substance/The level of expressed mRNA in the absence of chemical substance: 1.4
Yeast gene YCR071C
  The level of expressed mRNA in the presence of chemical substance/The level of expressed mRNA in the absence of chemical substance: 1.2
Yeast gene YCR088W
  The level of expressed mRNA in the presence of chemical substance/The level of expressed mRNA in the absence of chemical substance: 1.1
Yeast gene YCR096C
  The level of expressed mRNA in the presence of chemical substance/The level of expressed mRNA in the absence of chemical substance: 2.1
Yeast gene YDL008W
  The level of expressed mRNA in the presence of chemical substance/The level of expressed mRNA in the absence of chemical substance: 1.8
Yeast gene YDL018C
  The level of expressed mRNA in the presence of chemical substance/The level of expressed mRNA in the absence of chemical substance: 1.8
Yeast gene YDL137W
  The level of expressed mRNA in the presence of chemical substance/The level of expressed mRNA in the absence of chemical substance: 1.8
Yeast gene YDL192W
  The level of expressed mRNA in the presence of chemical substance/The level of expressed mRNA in the absence of chemical substance: 1.4
Yeast gene YDL238C
  The level of expressed mRNA in the presence of chemical substance/The level of expressed mRNA in the absence of chemical substance: 0.9
Yeast gene YDR055W
  The level of expressed mRNA in the presence of chemical substance/The level of expressed mRNA in the absence of chemical substance: 1.7
Yeast gene YDR084C
  The level of expressed mRNA in the presence of chemical substance/The level of expressed mRNA in the absence of chemical substance: 1.2
Yeast gene YDR085C
  The level of expressed mRNA in the presence of chemical substance/The level of expressed mRNA in the absence of chemical substance: 0.9
Yeast gene YDR104C
  The level of expressed mRNA in the presence of chemical substance/The level of expressed mRNA in the absence of chemical substance: 1.3
Yeast gene YDR115W
  The level of expressed mRNA in the presence of chemical substance/The level of expressed mRNA in the absence of chemical substance: 1.4
Yeast gene YDR259C
  The level of expressed mRNA in the presence of chemical substance/The level of expressed mRNA in the absence of chemical substance: 1.0
Yeast gene YDR315C
  The level of expressed mRNA in the presence of chemical substance/The level of expressed mRNA in the absence of chemical substance: 0.9
Yeast gene YDR358W
  The level of expressed mRNA in the presence of chemical substance/The level of expressed mRNA in the absence of chemical substance: 1.4
Yeast gene YDR373W
  The level of expressed mRNA in the presence of chemical substance/The level of expressed mRNA in the absence of chemical substance: 1.8
Yeast gene YDR378C
  The level of expressed mRNA in the presence of chemical substance/The level of expressed mRNA in the absence of chemical substance: 1.0
Yeast gene YDR388W
  The level of expressed mRNA in the presence of chemical substance/The level of expressed mRNA in the absence of chemical substance: 0.7
Yeast gene YDR403W
  The level of expressed mRNA in the presence of chemical substance/The level of expressed mRNA in the absence of chemical substance: 1.2
Yeast gene YDR432W
  The level of expressed mRNA in the presence of chemical substance/The level of expressed mRNA in the absence of chemical substance: 1.6
Yeast gene YDR481C
  The level of expressed mRNA in the presence of chemical substance/The level of expressed mRNA in the absence of chemical substance: 1.0
Yeast gene YDR510W
  The level of expressed mRNA in the presence of chemical substance/The level of expressed mRNA in the absence of chemical substance: 0.7
Yeast gene YEL042W
  The level of expressed mRNA in the presence of chemical substance/The level of expressed mRNA in the absence of chemical substance: 0.7
Yeast gene YEL066W
  The level of expressed mRNA in the presence of chemical substance/The level of expressed mRNA in the absence of chemical substance: 0.8
Yeast gene YER009W
  The level of expressed mRNA in the presence of chemical substance/The level of expressed mRNA in the absence of chemical substance: 1.2
Yeast gene YER021W
  The level of expressed mRNA in the presence of chemical substance/The level of expressed mRNA in the absence of chemical substance: 1.4
Yeast gene YER025W
  The level of expressed mRNA in the presence of chemical substance/The level of expressed mRNA in the absence of chemical substance: 1.5
Yeast gene YER039C
  The level of expressed mRNA in the presence of chemical substance/The level of expressed mRNA in the absence of chemical substance: 1.5
Yeast gene YER094C
  The level of expressed mRNA in the presence of chemical substance/The level of expressed mRNA in the absence of chemical substance: 1.9
Yeast gene YER107C
  The level of expressed mRNA in the presence of chemical substance/The level of expressed mRNA in the absence of chemical substance: 1.3
Yeast gene YER130C
  The level of expressed mRNA in the presence of chemical substance/The level of expressed mRNA in the absence of chemical substance: 1.7
Yeast gene YFL022C
  The level of expressed mRNA in the presence of chemical substance/The level of expressed mRNA in the absence of chemical substance: 0.7
Yeast gene YFL026W
  The level of expressed mRNA in the presence of chemical substance/The level of expressed mRNA in the absence of chemical substance: 1.4
Yeast gene YFL028C
  The level of expressed mRNA in the presence of chemical substance/The level of expressed mRNA in the absence of chemical substance: 1.7
Yeast gene YFL043C
  The level of expressed mRNA in the presence of chemical substance/The level of expressed mRNA in the absence of chemical substance: 1.2
Yeast gene YFR004W
  The level of expressed mRNA in the presence of chemical substance/The level of expressed mRNA in the absence of chemical substance: 1.0
Yeast gene YGL011C
  The level of expressed mRNA in the presence of chemical substance/The level of expressed mRNA in the absence of chemical substance: 1.8
Yeast gene YGL094C
  The level of expressed mRNA in the presence of chemical substance/The level of expressed mRNA in the absence of chemical substance: 1.3
Yeast gene YGL158W
  The level of expressed mRNA in the presence of chemical substance/The level of expressed mRNA in the absence of chemical substance: 1.0
Yeast gene YGL207W
  The level of expressed mRNA in the presence of chemical substance/The level of expressed mRNA in the absence of chemical substance: 1.3
Yeast gene YGL229C
  The level of expressed mRNA in the presence of chemical substance/The level of expressed mRNA in the absence of chemical substance: 1.0
Yeast gene YGR023W
  The level of expressed mRNA in the presence of chemical substance/The level of expressed mRNA in the absence of chemical substance: 1.0
Yeast gene YGR120C
  The level of expressed mRNA in the presence of chemical substance/The level of expressed mRNA in the absence of chemical substance: 1.8
Yeast gene YGR136W
  The level of expressed mRNA in the presence of chemical substance/The level of expressed mRNA in the absence of chemical substance: 1.2
Yeast gene YGR189C
  The level of expressed mRNA in the presence of chemical substance/The level of expressed mRNA in the absence of chemical substance: 0.7
Yeast gene YGR213C
  The level of expressed mRNA in the presence of chemical substance/The level of expressed mRNA in the absence of chemical substance: 1.2
Yeast gene YGR253C
  The level of expressed mRNA in the presence of chemical substance/The level of expressed mRNA in the absence of chemical substance: 2.0
Yeast gene YGR257C
  The level of expressed mRNA in the presence of chemical substance/The level of expressed mRNA in the absence of chemical substance: 1.3
Yeast gene YGR274C
  The level of expressed mRNA in the presence of chemical substance/The level of expressed mRNA in the absence of chemical substance: 1.8
Yeast gene YHR004C
  The level of expressed mRNA in the presence of chemical substance/The level of expressed mRNA in the absence of chemical substance: 1.5
Yeast gene YHR027C
  The level of expressed mRNA in the presence of chemical substance/The level of expressed mRNA in the absence of chemical substance: 1.1
Yeast gene YHR071W
  The level of expressed mRNA in the presence of chemical substance/The level of expressed mRNA in the absence of chemical substance: 1.5
Yeast gene YHR132C
  The level of expressed mRNA in the presence of chemical substance/The level of expressed mRNA in the absence of chemical substance: 1.0
Yeast gene YHR139C
  The level of expressed mRNA in the presence of chemical substance/The level of expressed mRNA in the absence of chemical substance: 1.3
Yeast gene YHR142W
  The level of expressed mRNA in the presence of chemical substance/The level of expressed mRNA in the absence of chemical substance: 1.3
